These results are taken from publication PMC11274943, “Discovery of Benzisothiazolone Derivatives as Bifunctional Inhibitors of HIV-1 Reverse Transcriptase DNA Polymerase and Ribonuclease H Activities” (Biomolecules, 2024).

“And” between values parts separate entries of the source, which are not always exact repeats. Equal values may be shown once.

Experiment [1] relates to P236L HIV-1 RT RNase H activity. Briefly: FRET-based RT RNase H cleavage assay, P236L RT. Type of experiment: biochemical. The conditions noted are these: P236L RT; fold resistance IC50 mutant/IC50 WT. Here is the method:
(§1) WT (wild-type) RT, and RTs harboring the NNRTI-resistant mutations K101E, K103N, Y181C, Y188C, G190A and P236L, were overexpressed and purified to homogeneity as described previously. The RT concentration was determined spectrophotometrically at 280 nm using an absorbance coefficient of 260,450 M^−1·cm^−1. The 7-hydroxy tropolone derivative 19,616 (2,7-dihydroxy 2,4,6-cyclo-heptatrien-1-one) was purchased from Molecular Diversity Preservation International (Basel, Switzerland). Nevirapine was purchased from Selleckchem (Houston, TX, USA). The benzisothiazolone derivatives were procured from MolPort (New York, NY, USA) or Enamine (Kyiv, Ukraine). The DNA and RNA oligonucleotides were synthesized and purified by Integrated DNA Technologies (Coralville, IA, USA). All other reagents were of the highest quality available and were used without further purification.
(§2) The following RNA/DNA T/P substrate was used in the present study: an 18-nucleotide RNA template (RNA-18T: 5′-[…]-3′) was annealed to an 18-nucleotide primer (DNA-18T: 5′-[…]-3′), as described previously. Fluorescein and IowaBlack FQTM were covalently attached to the 3′- and 5′-ter-mini of the RNA and DNA oligonucleotides, respectively.
(§3) The FRET-based RNase H cleavage assays were carried out as described previously. Fluorescence was measured with a SpectraMax M2 microplate spectrofluorometer (Molecular Devices, San Jose, CA, USA) using an excitation wavelength of 490 nm and an emission wavelength of 528 nm. Data were analyzed using SoftMax Pro software, version 4.7.1 (Molecular Devices, San Jose, CA, USA).

Experiment [2] has as its target T1, P236L HIV-1 RT RNase H activity (Human immunodeficiency virus type 1 group M subtype B, UniProt P04585, P823L).
T1 construct: made in house
Briefly: FRET-based RT RNase H cleavage assay, P236L RT. Type of experiment: biochemical. The method, then: as §1, §2, §3

Experiment [3] concerns the target T2, G190A HIV-1 RT RNase H activity (Human immunodeficiency virus type 1 group M subtype B, UniProt P04585, G777A).
T2 construct: made in house
Briefly: FRET-based RT RNase H cleavage assay, G190A RT. Type of experiment: biochemical. Here is the method:
as §1, §2, §3

The test system of experiment [4] is G190A HIV-1 RT RNase H activity. Briefly: FRET-based RT RNase H cleavage assay, G190A RT. The conditions noted are these: G190A RT; fold resistance IC50 mutant/IC50 WT. Type of experiment: biochemical. Here is the method:
as §1, §2, §3

A further experiment relates to HIV-1. The experiment can be described thus: Antiviral activity (HIV-1 replication) in TZM-bl cells. Type of experiment: cell-based. The settings on record: Human immunodeficiency virus 1, mean ± SD. The method, then:
The genes for Y181C, Y181I, Y181V and Y181F were cloned into HIV-1LAI. NNRTI susceptibility was determined in TZM-bl cells, as described previously.
Next, we re-purchased 10 hit compounds with IC50 values < 1.0 µM for the inhibition of RT RNase H activity that were commercially available in sufficient quantities for further analysis. We assessed their antiviral activity and cytotoxicity in TZM-bl cells, as described previously.

Experiment [5] deals with T3, Y181C HIV-1 RT RNase H activity (Human immunodeficiency virus type 1 group M subtype B, UniProt P04585, Y768C).
T3 construct: made in house
The experiment can be described thus: FRET-based RT RNase H cleavage assay, Y181C RT. Type of experiment: biochemical. The method, then: as §1, §2, §3

For experiment [6], the system named is Y181C HIV-1 RT RNase H activity. Briefly: FRET-based RT RNase H cleavage assay, Y181C RT. Type of experiment: biochemical. The settings on record: Y181C RT; fold resistance IC50 mutant/IC50 WT. Here is the method:
as §1, §2, §3

Experiment [7] concerns Y188C HIV-1 RT RNase H activity. The experiment can be described thus: FRET-based RT RNase H cleavage assay, Y188C RT. Type of experiment: biochemical. The conditions noted are these: Y188C RT; fold resistance IC50 mutant/IC50 WT. The method, then: as §1, §2, §3
Experiment [8] has as its target T4, Y188C HIV-1 RT RNase H activity (Human immunodeficiency virus type 1 group M subtype B, UniProt P04585, Y775C).
T4 construct: made in house
The experiment can be described thus: FRET-based RT RNase H cleavage assay, Y188C RT. Type of experiment: biochemical. The method, then: as §1, §2, §3

For experiment [9], the system named is K103N HIV-1 RT RNase H activity. The experiment can be described thus: FRET-based RT RNase H cleavage assay, K103N RT. Type of experiment: biochemical. The conditions noted are these: K103N RT; fold resistance IC50 mutant/IC50 WT. Here is the method:
as §1, §2, §3

The target in experiment [10] is T5, K103N HIV-1 RT RNase H activity (Human immunodeficiency virus type 1 group M subtype B, UniProt P04585, K690N).
T5 construct: made in house
Briefly: FRET-based RT RNase H cleavage assay, K103N RT. Type of experiment: biochemical. Here is the method:
as §1, §2, §3

Experiment [11] deals with T6, K101E HIV-1 RT RNase H activity (Human immunodeficiency virus type 1 group M subtype B, UniProt P04585, K688E).
T6 construct: made in house
The experiment can be described thus: FRET-based RT RNase H cleavage assay, K101E RT. Type of experiment: biochemical. Here is the method:
as §1, §2, §3

In experiment [12] the test system is K101E HIV-1 RT RNase H activity. The experiment can be described thus: FRET-based RT RNase H cleavage assay, K101E RT. Type of experiment: biochemical. The settings on record: K101E RT; fold resistance IC50 mutant/IC50 WT. Here is the method: as §1, §2, §3

In the case of `CCN(CC)S(=O)(=O)c1cccc(-n2sc3ccccc3c2=O)c1` [Compound 4, N,N-diethyl-3-(3-oxobenzo[d]isothiazol-2(3H)-yl)benzenesulfonamide], the “Inhibition of RT RNase H Activity Fold-R” value worked out at 1.2 in experiment [1]; 1.2 in [4]; 1.0 in experiment [6]; 4.2 in [7]; 3.2 in [9]; 0.3 in experiment [12]. For the same compound, the IC50 amounted to 310 ± 40 nM in experiment [2]; 310 ± 40 nM in [3]; 270 ± 30 nM in experiment [5]; 1100 ± 320 nM in [8]; 830 ± 230 nM in experiment [10]; 90 ± 30 nM in experiment [11]. In the experiment on HIV-1, this compound came in with an EC50 of 3270 ± 490 nM.
Regarding `CCOC(=O)Cc1csc(-n2sc3ccccc3c2=O)n1` [Compound 2, ethyl 2-(2-(3-oxobenzo[d]isothiazol-2(3H)-yl)thiazol-4-yl)acetate], the “Inhibition of RT RNase H Activity Fold-R” value was found to be 1.6 in [1]; 1.8 in experiment [4]; 4.2 in experiment [6]; 4.5 in experiment [7]; 1.8 in experiment [9]; 2.2 in experiment [12]. For the same compound, the IC50 amounted to 210 ± 10 nM in experiment [2]; 230 ± 20 nM in [3]; 550 ± 20 nM in [5]; 590 ± 40 nM in experiment [8]; 240 ± 120 nM in [10]; 280 ± 20 nM in experiment [11]. Besides, the EC50 in the experiment on HIV-1 was determined as 2680 ± 540 nM.
On to `Cc1ccc(-n2sc3ccccc3c2=O)cc1S(=O)(=O)N1CCCCC1` [Compound 1, 2-(4-methyl-3-(piperidin-1-ylsulfonyl)phenyl)benzo[d]isothiazol-3(2H)-one], for which the “Inhibition of RT RNase H Activity Fold-R” value was 1.4 in [1]; 1.3 in experiment [4]; 2.9 in experiment [6]; 2.0 in experiment [7]; 2 and 2.1 in experiment [9]; 1.6 in experiment [12]. In addition, the IC50 in [2] was 220 ± 10 nM; in experiment [3] it was 210 ± 20 nM; in experiment [5], 470 ± 50 nM; in experiment [8] it was 320 ± 10 nM; in experiment [10], 340 ± 40 nM; in experiment [11], 250 ± 60 nM. Also, the response in the experiment on HIV-1 was half-maximal at 1680 ± 940 nM (EC50).

One may read the IC50 as the concentration that gives 50% inhibition. As a reminder, the EC50 is the concentration that produces a half-maximal response. Higher therefore signals weaker potency.
